{"source": "patent US10441608B2", "about": "“Continuous methods for treating liquids and manufacturing certain constituents (e.g., nanoparticles) in liquids, apparatuses and nanoparticles and nanoparticle/liquid solution(s) resulting therefrom” (Clene Nanomedicine, Inc., priority 2009, dated 2019)", "tested_on": "Gram-Positive and Gram Negative bacteria", "assay_type": "cell-based", "note": "“And” between values parts separate entries of the source, which are not always exact repeats. Equal entries are not always repeated. Where two headings read alike, the source gives them in different places.", "data": [{"smiles": "C[C@H]1COc2c(N3CCN(C)CC3)c(F)cc3c(=O)c(C(=O)O)cn1c23", "note": "[Levofloxacin]", "values": [{"measurement": "MIC/MID 50", "setting": "Citrobacter freundii - antibiotic-susceptible clinical isolate", "result": 0.02, "unit": "µg/mL"}, {"measurement": "MIC/MID 50", "setting": "Citrobacter freundii - resistant clinical isolate", "result": 8.00, "unit": "µg/mL"}, {"measurement": "MIC/MID 50", "setting": "Enterobacter sp - antibiotic-susceptible clinical isolate", "result": 0.12, "unit": "µg/mL"}, {"measurement": "MIC/MID 50", "setting": "Enterobacter sp - multi-drug resistant clinical isolate", "result": 0.06, "unit": "µg/mL"}, {"measurement": "MIC/MID 50", "setting": "Enterococcus faecalis - ATCC 29212 antibiotic-susceptible control strain", "result": 2.00, "unit": "µg/mL"}, {"measurement": "MIC/MID 50", "setting": "Enterococcus faecalis vancomycin-susceptible clinical isolate", "result": 4.00, "unit": "µg/mL"}, {"measurement": "MIC/MID 50", "setting": "Enterococcus faecium vancomycin-resistant (VanB) clinical isolate", "result": 4.00, "unit": "µg/mL"}, {"measurement": "MIC/MID 50", "setting": "Enterococcus gallinarum vancomycin-resistant (VanC) clinical isolate", "result": 2.00, "unit": "µg/mL"}, {"measurement": "MIC/MID 50", "setting": "Escherichia coli ATCC25922 - antibiotic-susceptible type strain", "result": 0.02, "unit": "µg/mL"}, {"measurement": "MID/MIC (amount of antibiotic)", "setting": "GN01 Escherichia coli ATCC25922, antibiotic-susceptible type strain", "result": 0.015, "unit": "mg/L"}, {"measurement": "MID/MIC (amount of antibiotic)", "setting": "GN02 Escherichia coli ATCC35218, β-lactamase positive type strain", "result": 0.015, "unit": "mg/L"}, {"measurement": "MID/MIC (amount of antibiotic)", "setting": "GN06 Enterobacter sp, antibiotic-susceptible clinical isolate", "result": "0.06 mg/L and 0.12 mg/L"}, {"measurement": "MID/MIC (amount of antibiotic)", "setting": "GN10 Pseudomonas aeruginosa ATCC27853, antibiotic-susceptible type strain", "result": 2, "unit": "mg/L"}, {"measurement": "MID/MIC (amount of antibiotic)", "setting": "GN11 Pseudomonas aeruginosa, multi-drug resistant clinical isolate", "result": 2, "unit": "mg/L"}, {"measurement": "MID/MIC (amount of antibiotic)", "setting": "GN12 Stenotrophomonas maltophilia, antibiotic-susceptible clinical isolate", "result": 0.25, "unit": "mg/L"}, {"measurement": "MID/MIC (amount of antibiotic)", "setting": "GN13 Stenotrophomonas maltophila, antibiotic-resistant clinical isolate", "result": 1, "unit": "mg/L"}, {"measurement": "MID/MIC (amount of antibiotic)", "setting": "GN14 Burkholderia cepacia, antibiotic-susceptible clinical isolate", "result": 4, "unit": "mg/L"}, {"measurement": "MID/MIC (amount of antibiotic)", "setting": "GN15 Proteus mirabilis, antibiotic-susceptible clinical isolate", "result": 0.06, "unit": "mg/L"}, {"measurement": "MID/MIC (amount of antibiotic)", "setting": "GN16 Proteus mirabilis, multi-drug resistant clinical isolate", "result": 2, "unit": "mg/L"}, {"measurement": "MID/MIC (amount of antibiotic)", "setting": "GN17 Salmonella sp, antibiotic-susceptible clinical isolate", "result": 0.03, "unit": "mg/L"}, {"measurement": "MID/MIC (amount of antibiotic)", "setting": "GN18 Salmonella sp, multi-drug resistant clinical isolate", "result": 0.06, "unit": "mg/L"}, {"measurement": "MID/MIC (amount of antibiotic)", "setting": "GN19 Shigella sp, antibiotic-susceptible clinical isolate", "result": 0.03, "unit": "mg/L"}, {"measurement": "MID/MIC (amount of antibiotic)", "setting": "GN20 Shigella sp, multi-drug resistant clinical isolate", "result": 0.03, "unit": "mg/L"}, {"measurement": "MID/MIC (amount of antibiotic)", "setting": "GN22 Morganella morganii, multi-drug resistant clinical isolate", "result": 1, "unit": "mg/L"}, {"measurement": "MID/MIC (amount of antibiotic)", "setting": "GN23 Providencia stuartii, antibiotic-susceptible clinical isolate", "result": 0.06, "unit": "mg/L"}, {"measurement": "MID/MIC (amount of antibiotic)", "setting": "GN24 Providencia stuartii, multi-drug resistant clinical isolate", "result": 8, "unit": "mg/L"}, {"measurement": "MID/MIC (amount of antibiotic)", "setting": "GN28 Haemophilus influenzae, β-lactamase negative ampicillin-resistant clinical isolate", "result": 0.06, "unit": "mg/L"}, {"measurement": "MID/MIC (amount of antibiotic)", "setting": "GN29 Moraxella catarrhalis, β-lactamase positive clinical isolate", "result": 0.06, "unit": "mg/L"}, {"measurement": "MID/MIC (amount of antibiotic)", "setting": "GN32 Acinetobacter baumanii, multi-drug resistant clinical isolate", "result": 8, "unit": "mg/L"}, {"measurement": "MID/MIC (amount of antibiotic)", "setting": "GN33 Bacteroides fragilis, antibiotic-susceptible clinical isolate, supplemented with 2% serum and 1 μg/mL Vit K", "result": 0.015, "unit": "mg/L"}, {"measurement": "MID/MIC (amount of antibiotic)", "setting": "GP02 Staphylococcus aureus ATCC 25923, antibiotic-susceptible control strain", "result": 0.12, "unit": "mg/L"}, {"measurement": "MID/MIC (amount of antibiotic)", "setting": "GP04 Staphylococcus aureus, methicillin-resistant clinical isolate", "result": 0.12, "unit": "mg/L"}, {"measurement": "MID/MIC (amount of antibiotic)", "setting": "GP05 Staphylococcus aureus, multi-drug-resistant clinical isolate", "result": 4, "unit": "mg/L"}, {"measurement": "MID/MIC (amount of antibiotic)", "setting": "GP06 Staphylococcus aureus, teicoplanin-intermediate clinical isolate", "result": 4, "unit": "mg/L"}, {"measurement": "MID/MIC (amount of antibiotic)", "setting": "GP07 Staphylococcus epidermidis, antibiotic susceptible clinical isolate", "result": 0.12, "unit": "mg/L"}, {"measurement": "MID/MIC (amount of antibiotic)", "setting": "GP08 Staphylococcus epidermidis, methicillin-resistant clinical isolate", "result": 0.25, "unit": "mg/L"}, {"measurement": "MID/MIC (amount of antibiotic)", "setting": "GP09 Staphylococcus haemolyticus, antibiotic susceptible clinical isolate", "result": 0.5, "unit": "mg/L"}, {"measurement": "MID/MIC (amount of antibiotic)", "setting": "GP10 Staphylococcus saprophyticus, antibiotic susceptible clinical isolate", "result": 0.5, "unit": "mg/L"}, {"measurement": "MID/MIC (amount of antibiotic)", "setting": "GP11 Enterococcus faecalis ATCC 29212, antibiotic-susceptible control strain", "result": 2, "unit": "mg/L"}, {"measurement": "MID/MIC (amount of antibiotic)", "setting": "GP12 Enterococcus faecalis, vancomycin-susceptible clinical isolate", "result": 4, "unit": "mg/L"}, {"measurement": "MID/MIC (amount of antibiotic)", "setting": "GP15 Enterococcus faecalis, high-level gentamicin-resistant clinical isolate", "result": ">8", "unit": "mg/L"}, {"measurement": "MID/MIC (amount of antibiotic)", "setting": "GP16 Enterococcus faecium, vancomycin-susceptible clinical isolate", "result": ">8", "unit": "mg/L"}, {"measurement": "MID/MIC (amount of antibiotic)", "setting": "GP17 Enterococcus faecium, vancomycin-resistant (VanA) clinical isolate", "result": 4, "unit": "mg/L"}, {"measurement": "MID/MIC (amount of antibiotic)", "setting": "GP18 Enterococcus faecium, vancomycin-resistant (VanB) clinical isolate", "result": 2, "unit": "mg/L"}, {"measurement": "MID/MIC (amount of antibiotic)", "setting": "GP19 Enterococcus gallinarum, vancomycin-resistant (VanC) clinical isolate", "result": 1, "unit": "mg/L"}, {"measurement": "MID/MIC (amount of antibiotic)", "setting": "GP20 Streptococcus pneumoniae ATCC 49619, antibiotic-susceptible control strain", "result": 1, "unit": "mg/L"}, {"measurement": "MID/MIC (amount of antibiotic)", "setting": "GP21 Streptococcus pneumoniae, pencillin-susceptible clinical isolate", "result": 0.5, "unit": "mg/L"}, {"measurement": "MID/MIC (amount of antibiotic)", "setting": "GP22 Streptococcus pneumoniae, penicillin-intermediate clinical isolate", "result": 0.5, "unit": "mg/L"}, {"measurement": "MID/MIC (amount of antibiotic)", "setting": "GP23 Streptococcus pneumoniae, penicillin-resistant clinical isolate", "result": "0.5 mg/L and 1 mg/L"}, {"measurement": "MID/MIC (amount of antibiotic)", "setting": "GP25 Streptococcus pyogenes, antibiotic-susceptible clinical isolate", "result": 0.5, "unit": "mg/L"}, {"measurement": "MID/MIC (amount of antibiotic)", "setting": "GP29 Corynebacterium jeikeium, multi-drug resistant clinical isolate", "result": 0.5, "unit": "mg/L"}, {"measurement": "MID/MIC (amount of antibiotic)", "setting": "GP30 Listeria monocytogenes, antibiotic-susceptible clinical isolate", "result": 8, "unit": "mg/L"}, {"measurement": "MID/MIC (amount of antibiotic)", "setting": "GP31 MU50 Staphylococcus aureus (MRSA), VISA type strain", "result": 0.06, "unit": "mg/L"}]}]}
